Results taken from patent publication US8674095B2, “Compounds for treating neuropsychiatric conditions” (Afraxis Holdings, Inc., priority 2008, dated 2014).
pIC50: −log10 of the molar value.

Tests used:
PAK1 = PAK1 (Homo sapiens, UniProt Q13153); experiment: Z'Lyte fluorescence-based (FRET) kinase assay, PAK1; format: biochemical; settings: 50 μM ATP (Km apparent), 1 hr room temperature, 1% DMSO
Experimental: (§1) A fluorescence-based assay format is used to determine IC50 values of test compounds in vitro. Purified PAK kinase is incubated with ATP, and a test compound at various concentrations and a substrate peptide containing two fluorophores. In a second step, the reaction mix is incubated with a site-specific protease that cleaves non-phosphorylated but not phosphorylated substrate peptide, disrupting the FRET signal generated by the two fluorophores in the cleaved peptide (Z′Lyte™ Kinase assay platform; Life Technologies).
(§2) Reagents: 50 mM HEPES, pH 7.5; 0.01% BRIJ-35; 10 mM MgCl2; 1 mM EGTA, 2 uM substrate peptide Ser/Thr20 (proprietary Life Technologies Sequence), PAK enzyme [2.42-30.8 ng for PAK1, 0.29-6 ng for PAK2, 1.5-20 ng for PAK3 and 0.1-0.86 ng for PAK4; actual enzyme amounts depend on lot activity of the enzyme preparation]
(§3) Test compounds are dissolved in DMSO at various concentrations; the final DMSO concentration in the assay reaction is 1%.
(§4) ATP concentration at Km apparent is used in the assay [50 μM ATP for PAK1 assay, 75 μM ATP for PAK2 assay, 100 μM ATP for PAK3 assay, 5 μM ATP for PAK-4 assay] in a total assay volume of […] Assay reactions are incubated at room temperature for 1 hr. Following the kinase reaction, 5 μl of 1:256 dilution of development solution A (Life Technologies) is added and the reaction mix is incubated for an additional 1 hr at room temperature.
(§5) Plates are analyzed in a standard fluorescence plate reader (Tecan or equivalent) using an excitation wavelength of 400 nm and emission wavelengths of 445 nm and 520 nm. Inhibition of kinase reaction is determined by emission ratio=emission@445 nm/emission@520 nm

PAK2 = PAK2 (Homo sapiens, UniProt Q13177); experiment: Z'Lyte fluorescence-based (FRET) kinase assay, PAK2; format: biochemical; settings: 75 μM ATP (Km apparent), 1 hr room temperature, 1% DMSO
Sequence of PAK2 (Q13177 whole entry): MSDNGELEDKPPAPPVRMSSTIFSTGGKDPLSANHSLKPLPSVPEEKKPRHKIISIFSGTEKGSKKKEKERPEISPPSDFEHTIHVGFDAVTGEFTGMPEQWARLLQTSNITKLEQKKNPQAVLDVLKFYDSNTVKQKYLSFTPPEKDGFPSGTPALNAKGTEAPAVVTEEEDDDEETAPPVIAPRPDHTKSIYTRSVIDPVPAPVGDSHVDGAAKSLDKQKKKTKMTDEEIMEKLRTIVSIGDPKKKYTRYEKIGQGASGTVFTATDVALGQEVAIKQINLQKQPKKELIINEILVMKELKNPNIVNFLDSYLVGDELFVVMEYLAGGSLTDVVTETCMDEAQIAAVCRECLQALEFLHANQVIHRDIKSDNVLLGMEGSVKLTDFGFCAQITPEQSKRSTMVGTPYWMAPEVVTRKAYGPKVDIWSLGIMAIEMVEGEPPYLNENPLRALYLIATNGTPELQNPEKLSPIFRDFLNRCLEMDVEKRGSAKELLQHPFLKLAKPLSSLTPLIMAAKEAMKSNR
Experimental: as §1, §2, §3, §4, §5

PAK1, PAK2, PAK3, PAK-4 = experiment: PAK isoform inhibition profile of example compounds; format: biochemical; settings: classification of example compounds in the description; underlying IC50 data in Table 8
Excerpt: In some embodiments, the PAK inhibitor is a Group I PAK inhibitor that inhibits, for example, one or more Group I PAK polypeptides, for example, PAK1, PAK2, and/or PAK3. […] In some embodiments, the PAK inhibitor is a PAK2 inhibitor. In some embodiments, the PAK inhibitor is a PAK3 inhibitor. In some embodiments, the PAK inhibitor is a mixed PAK1/PAK3 inhibitor. […] In some embodiments, the PAK inhibitor is a Group II PAK inhibitor that inhibits one or more Group II PAK polypeptides, for example PAK-4, PAK5, and/or PAK6. In some embodiments, the PAK inhibitor is a PAK4 inhibitor. In some embodiments, the PAK inhibitor is a PAK5 inhibitor. In some embodiments, the PAK inhibitor is a PAK6 inhibitor.
as §1, §2, §3, §4, §5

PAK4 = PAK4 (Homo sapiens, UniProt O96013); experiment: Z'Lyte fluorescence-based (FRET) kinase assay, PAK4; format: biochemical; settings: 5 μM ATP (Km apparent), 1 hr room temperature, 1% DMSO
Sequence of PAK4 (O96013 whole entry): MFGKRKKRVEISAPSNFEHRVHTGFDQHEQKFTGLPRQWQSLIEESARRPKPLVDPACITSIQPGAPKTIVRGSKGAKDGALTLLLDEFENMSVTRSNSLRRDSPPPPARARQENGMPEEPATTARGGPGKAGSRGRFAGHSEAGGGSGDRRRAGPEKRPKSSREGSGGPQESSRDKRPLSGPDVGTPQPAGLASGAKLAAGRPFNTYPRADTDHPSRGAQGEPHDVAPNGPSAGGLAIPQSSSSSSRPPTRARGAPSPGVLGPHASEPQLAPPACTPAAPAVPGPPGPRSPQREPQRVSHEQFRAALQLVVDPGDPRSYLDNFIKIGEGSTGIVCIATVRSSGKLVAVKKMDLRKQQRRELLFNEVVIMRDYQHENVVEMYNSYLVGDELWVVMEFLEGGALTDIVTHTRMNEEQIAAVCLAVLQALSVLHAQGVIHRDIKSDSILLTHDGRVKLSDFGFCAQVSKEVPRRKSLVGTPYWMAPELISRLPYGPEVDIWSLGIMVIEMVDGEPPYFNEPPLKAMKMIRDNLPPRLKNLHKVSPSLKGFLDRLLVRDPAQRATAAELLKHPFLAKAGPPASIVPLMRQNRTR
Experimental: as §1, §2, §3, §4, §5

PAK3 = PAK3 (Homo sapiens, UniProt O75914); experiment: Z'Lyte fluorescence-based (FRET) kinase assay, PAK3; format: biochemical; settings: 100 μM ATP (Km apparent), 1 hr room temperature, 1% DMSO
Sequence of PAK3 (O75914 whole entry): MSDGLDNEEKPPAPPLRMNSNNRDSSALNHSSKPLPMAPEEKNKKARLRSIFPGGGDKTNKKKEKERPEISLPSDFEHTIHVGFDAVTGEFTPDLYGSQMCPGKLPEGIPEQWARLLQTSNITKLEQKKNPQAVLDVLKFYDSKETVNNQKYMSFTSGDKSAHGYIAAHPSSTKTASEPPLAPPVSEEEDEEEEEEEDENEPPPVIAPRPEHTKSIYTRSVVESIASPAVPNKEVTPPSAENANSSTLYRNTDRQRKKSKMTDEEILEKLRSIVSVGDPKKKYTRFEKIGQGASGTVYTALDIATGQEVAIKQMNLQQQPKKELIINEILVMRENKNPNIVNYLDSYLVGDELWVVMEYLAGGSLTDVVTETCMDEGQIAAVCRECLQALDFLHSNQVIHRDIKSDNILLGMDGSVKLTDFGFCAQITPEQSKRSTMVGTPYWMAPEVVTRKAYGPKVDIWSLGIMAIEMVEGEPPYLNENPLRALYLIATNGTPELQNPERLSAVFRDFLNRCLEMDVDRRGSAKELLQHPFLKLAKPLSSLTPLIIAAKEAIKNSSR
Experimental: as §1, §2, §3, §4, §5

[1] = test system: Wistar rat pups injected with tetanus toxin; settings: in vivo

Sequence of PAK1 (Q13153 whole entry): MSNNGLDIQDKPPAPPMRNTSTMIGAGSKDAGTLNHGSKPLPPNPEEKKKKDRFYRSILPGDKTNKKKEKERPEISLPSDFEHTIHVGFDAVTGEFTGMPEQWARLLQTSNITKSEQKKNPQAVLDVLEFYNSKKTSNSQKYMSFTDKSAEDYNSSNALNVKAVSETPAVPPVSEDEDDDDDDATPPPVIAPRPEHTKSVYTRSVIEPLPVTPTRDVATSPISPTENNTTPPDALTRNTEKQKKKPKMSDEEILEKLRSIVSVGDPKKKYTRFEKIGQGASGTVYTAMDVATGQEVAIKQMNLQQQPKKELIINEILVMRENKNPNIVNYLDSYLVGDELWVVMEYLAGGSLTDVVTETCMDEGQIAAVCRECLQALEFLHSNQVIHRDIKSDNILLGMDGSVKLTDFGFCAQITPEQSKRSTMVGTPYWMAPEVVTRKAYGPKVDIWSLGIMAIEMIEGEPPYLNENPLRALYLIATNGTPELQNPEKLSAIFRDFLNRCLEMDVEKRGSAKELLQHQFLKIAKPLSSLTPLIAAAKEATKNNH

In the case of `CN1CCN(c2ccc(Nc3nccc(-c4ccc(NCCN)nc4)n3)cc2)CC1.Cl` [Compound 94, N-(5-{2-[4-(4-Methyl-piperazin-1-yl)-phenylamino]-pyrimidin-4-yl}-pyridin-2-yl)-ethane-1,2-diamine hydrochloride], the pIC50 (PAK1) was over 6.00, the pIC50 (PAK2) was 5.00 to 6.00 and the “PAK inhibitor type (isoform profile)” value (PAK1, PAK2, PAK3, PAK-4) was “mixed PAK1/PAK-4 inhibitor”. For the same compound, the pIC50 (PAK4) was over 6.00 and the pIC50 (PAK3) was 5.00 to 6.00.
In the case of `Cc1cccc(F)c1Cn1c(=O)ccc2cnc(Nc3ccc(N4CCN(C)CC4)cc3)nc21` [Compound 65], the pIC50 (PAK1) was over 6.00, the pIC50 (PAK2) was over 6.00 and the “PAK inhibitor type (isoform profile)” value (PAK1, PAK2, PAK3, PAK-4) was “mixed PAK1/PAK2/PAK3/PAK-4 inhibitor”. For the same compound, the pIC50 (PAK4) was over 6.00 and the pIC50 (PAK3) was over 6.00.
With `CN1CCN(c2ccc(Nc3ncc4ccc(=O)n(Cc5c(F)cccc5Br)c4n3)cc2)CC1` [Compound 79] the pIC50 (PAK1) was over 6.00, the pIC50 (PAK2) was over 6.00 and the “PAK inhibitor type (isoform profile)” value (PAK1, PAK2, PAK3, PAK-4) was “mixed PAK1/PAK2/PAK3/PAK-4 inhibitor”. For the same compound, the pIC50 (PAK4) was over 6.00 and the pIC50 (PAK3) was over 6.00.
With `Cc1noc(-c2ccccc2Cn2c(=O)ccc3cnc(Nc4ccc(N5CCNCC5)c(F)c4)nc32)n1` [Compound 80] the pIC50 (PAK1) was over 6.00, the pIC50 (PAK2) was 5.00 to 6.00 and the “PAK inhibitor type (isoform profile)” value (PAK1, PAK2, PAK3, PAK-4) was “PAK1 inhibitor”. The pIC50 (PAK4) was 5.00 to 6.00 and the pIC50 (PAK3) was 5.00 to 6.00.
With `CN1CCN(c2ccc(Nc3ncc4ccc(=O)n(Cc5c(F)cccc5Cl)c4n3)cc2)CC1` [Compound 53] the pIC50 (PAK1) was over 6.00, the pIC50 (PAK2) was over 6.00 and the “PAK inhibitor type (isoform profile)” value (PAK1, PAK2, PAK3, PAK-4) was “mixed PAK1/PAK2/PAK3/PAK-4 inhibitor”. It also gave a pIC50 (PAK4) of over 6.00 and a pIC50 (PAK3) of over 6.00.
For `CN1CCN(c2ccc(Nc3ncc4ccc(=O)n(Cc5ccccc5S(=O)(=O)N5CCOCC5)c4n3)cc2)CC1` [Compound 74], the pIC50 (PAK1) was over 6.00, the pIC50 (PAK2) was over 6.00 and the “PAK inhibitor type (isoform profile)” value (PAK1, PAK2, PAK3, PAK-4) was “mixed PAK1/PAK2/PAK3/PAK-4 inhibitor”. It also gave a pIC50 (PAK4) of over 6.00 and a pIC50 (PAK3) of over 6.00.
With `CN1CCN(c2ccc(Nc3ncc4ccc(=O)n([C@H]5CCCc6ccccc65)c4n3)cc2)CC1` [Compound 12] the pIC50 (PAK1) was over 6.00, the Effect on seizures [1] was “reduce the frequency and severity of seizures” and the pIC50 (PAK2) was 5.00 to 6.00. The “PAK inhibitor type (isoform profile)” value (PAK1, PAK2, PAK3, PAK-4) was “PAK1 inhibitor”, the pIC50 (PAK4) was 5.00 to 6.00 and the pIC50 (PAK3) was 5.00 to 6.00.
In the case of `CN1CCN(c2ccc(Nc3ncc4ccc(=O)n(Cc5c(F)cccc5F)c4n3)cc2)CC1` [Compound 58], the pIC50 (PAK1) was over 6.00, the pIC50 (PAK2) was 5.00 to 6.00 and the “PAK inhibitor type (isoform profile)” value (PAK1, PAK2, PAK3, PAK-4) was “PAK1 inhibitor”. For the same compound, the pIC50 (PAK4) was 5.00 to 6.00 and the pIC50 (PAK3) was 5.00 to 6.00.
`Cc1c(F)cccc1Cn1c(=O)ccc2cnc(Nc3ccc(N4CCN(C)CC4)cc3)nc21` [Compound 49] was tested, and the pIC50 (PAK1) was over 6.00, the pIC50 (PAK2) was 5.00 to 6.00 and the “PAK inhibitor type (isoform profile)” value (PAK1, PAK2, PAK3, PAK-4) was “PAK1 inhibitor”. It also gave a pIC50 (PAK4) of 5.00 to 6.00 and a pIC50 (PAK3) of under 5.00.
`CN1CCN(c2ccc(Nc3ncc4ccc(=O)n(Cc5ccccc5-c5ccccc5)c4n3)cc2)CC1` [Compound 68] was tested, and the pIC50 (PAK1) was over 6.00, the pIC50 (PAK2) was over 6.00 and the “PAK inhibitor type (isoform profile)” value (PAK1, PAK2, PAK3, PAK-4) was “inhibits all three Group I PAK isoforms (PAK1, 2 and PAK3) with equal or similar potency”. The pIC50 (PAK4) was 5.00 to 6.00 and the pIC50 (PAK3) was over 6.00.
For `CN1CCN(c2ccc(Nc3ncc4ccc(=O)n(Cc5ccccc5S(C)(=O)=O)c4n3)cc2)CC1` [Compound 72], the pIC50 (PAK1) was over 6.00, the pIC50 (PAK2) was over 6.00 and the “PAK inhibitor type (isoform profile)” value (PAK1, PAK2, PAK3, PAK-4) was “mixed PAK1/PAK2/PAK3/PAK-4 inhibitor”. It also gave a pIC50 (PAK4) of over 6.00 and a pIC50 (PAK3) of over 6.00.
